Test results from US12344599B2, “Prodigiosin analogs and methods of use” (Institute For Cancer Research, priority 2016, dated 2025).
“Also recorded” adds a separate entry of the source.

Tested on: human cancer cells with mutant p53
Assay: CellTiterGlo cell viability assay, panel of cancer cell lines
Assay type: cell-based
Procedure: • 1) Cell lines: HT29, SW480, DLD-1, HCT116, and p53-null HCT116 cells, H1975, MDA-MD-231, U251, FaDu, CAL-27, PANC-1, Aspc-1, and MRC5 were obtained from the ATCC and cultured as recommended. Cells were regularly authenticated by bioluminescence, growth, and morphologic observation. The cells were routinely examined for Mycoplasma and all cell lines underwent STR authentication. • 2) Western blotting: After treatment, protein lysates were collected for Western blot analysis. 15 μg of protein was used for SDS-PAGE. After primary and secondary antibody incubations, the signal was detected by chemiluminescent detection kit, imaged by Syngene (Imgen Technologies). […] The cell viability was assessed by CellTiterGlo bioluminescent cell proliferation assay (Promega), following the manufacturer's protocol. Bioluminescence imaging was measured using the IVIS imager. Percentage of cell viability (mean±SEM) at each dose was calculated against the respective DMSO control. The IC50 values were determined from the sigmoidal dose-response curves using GraphPad Prims4. • 4) Caspase activity assay: Cells were seeded in 96-well plate (1×10^4 cells/well). […] The caspase 3/7 activity was assessed by Caspase-Glo® 3/7 Assay kit (Promega), following the manufacturer's protocol. Bioluminescence imaging was measured using the IVIS imager. […]

## CCCCCCCCOC(=O)CCc1c(C)[nH]c(/C=C2\N=C(c3ccc[nH]3)C=C2OC)c1C [PG3-Oc, Octyl (Z)-3-(5-((4′-methoxy-1H,5′H-[2,2′-bipyrrol]-5′-ylidene)methyl)-2,4-dimethyl-1H-pyrrol-3-yl)propanoate]
HCT116 and SW480, 72 hours, comparison with prodigiosin and obatoclax
  potency for inhibition of cancer cell growth: comparable with prodigiosin (P) and obatoclax (Ob); also recorded: comparable to prodigiosin and obatoclax
Panel of human cancer cell lines with mutant p53, 72 hours
  IC50 values: within the nano-molar range
